Legend:
Test in all cases: relative viability (nuclei count vs DMSO), 5 days (fraction); higher = more cells survive
Bortezomib + Linsitinib = compound: CC(C)C[C@H](NC(=O)[C@H](Cc1ccccc1)NC(=O)c1cnccn1)B(O)O [Bortezomib] + C[C@]1(O)C[C@@H](c2nc(-c3ccc4ccc(-c5ccccc5)nc4c3)c3c(N)nccn32)C1 [Linsitinib] (partner 1 µM)
Procedure, shortened: (§1)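 Each reported value is a median over duplicate plates. It expresses relative viability: treated-well nuclei count divided by vehicle-well nuclei count. Lung cancer cell lines in 1536-well plates were dosed by pin tool a day after seeding, alone with one drug or with a fixed anchor-drug dose plus five library-drug doses (not always all listed) in √10 steps, and nuclei were counted after 5 days.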

[1] = compound: CC1=CC(=NN1)NC2=CC(=NC(=N2)/C=C/C3=CC=CC=C3)N4CCN(CC4)C + C[C@@H](Oc1cc(-c2cnn(C3CCNCC3)c2)cnc1N)c1c(Cl)ccc(F)c1Cl [Crizotinib] (partner 1 µM)
Procedure, shortened: as §1

[2] = compound: CC1=CC(=NN1)NC2=CC(=NC(=N2)/C=C/C3=CC=CC=C3)N4CCN(CC4)C + Nc1nc2[nH]cc(CCc3ccc(C(=O)N[C@@H](CCC(=O)O)C(=O)O)cc3)c2c(=O)[nH]1 [Pemetrexed] (partner 0.2 µM)
Procedure, shortened: as §1

Obatoclax + Tozasertib = compound: COC1=CC(c2cc3ccccc3[nH]2)=N/C1=C\c1[nH]c(C)cc1C [Obatoclax] + Cc1cc(Nc2cc(N3CCN(C)CC3)nc(Sc3ccc(NC(=O)C4CC4)cc3)n2)n[nH]1 [Tozasertib] (partner 0.1 µM)
Procedure, shortened: as §1

Cell Line | relative viability (Bortezomib + Linsitinib; first compound 0.0002 µM) | relative viability (Bortezomib + Linsitinib; first compound 0.000632 µM) | relative viability (Bortezomib + Linsitinib; first compound 0.002 µM) | relative viability (Bortezomib + Linsitinib; first compound 0.006325 µM) | relative viability (Bortezomib + Linsitinib; first compound 0.02 µM) | relative viability ([1]; first compound 0.08 µM) | relative viability ([1]; first compound 0.253 µM) | relative viability ([1]; first compound 0.8 µM) | relative viability ([1]; first compound 2.53 µM) | relative viability ([1]; first compound 8 µM) | relative viability ([2]; first compound 0.08 µM) | relative viability ([2]; first compound 0.253 µM) | relative viability ([2]; first compound 0.8 µM) | relative viability ([2]; first compound 2.53 µM) | relative viability ([2]; first compound 8 µM) | relative viability (Obatoclax + Tozasertib; first compound 0.01 µM) | relative viability (Obatoclax + Tozasertib; first compound 0.03162 µM) | relative viability (Obatoclax + Tozasertib; first compound 0.1 µM) | relative viability (Obatoclax + Tozasertib; first compound 0.3162 µM) | relative viability (Obatoclax + Tozasertib; first compound 1 µM)
201T | 1.04 | 1.1 | 0.921 | 1.08 | 0.4 | 1.01 | 1.07 | 0.965 | 0.982 | 0.786 | 0.31 | 0.318 | 0.376 | 0.327 | 0.298 | 0.896 | 0.94 | 0.93 | 0.876 | 1.04
A549 | 0.667 | 0.538 | 0.423 | 0.122 | 0.0542 | 0.873 | 0.537 | 0.257 | 0.112 | 0.0338 |  |  |  |  |  |  |  |  |  | 
A-427 | 1.06 | 1.03 | 1.1 | 1.16 | 0.285 | 0.878 | 0.878 | 0.937 | 0.399 | 0.0861 | 1.06 | 1.1 | 0.97 | 0.51 | 0.202 | 0.164 | 0.24 | 0.243 | 0.212 | 0.191
ABC-1 | 0.806 | 0.688 | 0.308 | 0.257 | 0.234 | 0.866 | 1.25 | 0.562 | 0.182 | 0.169 |  |  |  |  |  | 0.181 | 0.17 | 0.177 | 0.209 | 0.223
BEN | 0.814 | 0.927 | 0.763 | 0.592 | 0.173 | 0.881 | 1.09 | 0.804 | 0.675 | 0.167 | 0.723 | 0.809 | 0.699 | 0.476 | 0.323 | 0.491 | 0.467 |  | 0.626 | 0.506
CAL-12T | 0.898 | 0.852 | 0.742 | 0.662 | 0.165 | 0.825 | 0.54 | 0.291 | 0.11 | 0.0934 | 1.09 | 1.25 | 1.16 | 0.56 | 0.159 | 0.389 | 0.326 | 0.36 | 0.153 | 0.0881
COR-L23 | 0.994 | 0.828 | 0.495 | 0.0469 | 0.0499 | 0.696 | 0.676 | 0.41 | 0.159 | 0.0747 | 0.202 | 0.203 | 0.179 | 0.166 | 0.105 | 0.233 | 0.182 | 0.217 | 0.111 | 0.108
COR-L 105 | 0.848 | 0.99 | 0.711 | 0.293 | 0.282 | 0.897 | 0.731 | 0.445 | 0.222 | 0.191 | 1.23 | 1.13 | 0.945 | 0.351 | 0.29 | 0.381 | 0.316 | 0.345 | 0.284 | 0.248
Calu-6 | 0.938 | 0.775 | 0.961 | 0.214 | 0.0654 | 0.735 | 0.622 | 0.345 | 0.197 | 0.101 |  |  |  |  |  |  |  |  |  | 
ChaGo-K-1 |  |  |  |  |  | 1.1 | 1.07 | 1.13 | 0.484 | 0.267 | 0.259 | 0.264 | 0.27 | 0.227 | 0.17 | 0.247 | 0.24 | 0.243 | 0.24 | 0.235
EBC-1 | 0.902 | 0.801 | 0.516 | 0.0706 | 0.0667 | 0.188 | 0.185 | 0.213 | 0.137 | 0.108 |  |  |  |  |  |  |  |  |  | 
EKVX | 1.01 | 0.936 | 0.915 | 0.609 | 0.0808 | 0.991 | 1.12 | 0.978 | 0.552 | 0.147 | 0.366 | 0.5 | 0.674 | 0.361 | 0.197 | 0.371 | 0.357 | 0.466 | 0.385 | 0.394
EMC-BAC-2 | 0.828 | 0.805 | 0.786 | 0.46 | 0.132 | 0.788 | 0.721 | 0.566 | 0.296 | 0.0972 | 0.439 | 0.495 | 0.445 | 0.465 | 0.234 | 0.279 | 0.294 | 0.25 | 0.289 | 0.263
EPLC-272H |  |  | 1.26 | 1.29 | 0.109 | 0.884 | 1.06 | 0.711 | 0.452 | 0.174 | 0.329 | 0.363 | 0.342 | 0.104 | 0.136 | 0.255 | 0.229 | 0.343 | 0.326 | 0.545
H3255 | 0.914 | 1.02 | 0.705 | 0.263 | 0.19 | 0.731 | 0.936 | 0.943 | 0.74 | 0.192 | 0.526 | 0.589 | 0.573 | 0.555 | 0.391 | 0.6 | 0.796 | 0.513 | 0.638 | 0.73
HARA | 0.899 | 0.836 | 0.895 | 0.0675 | 0.0867 | 1.05 | 1.01 | 0.932 | 0.138 | 0.1 | 0.234 | 0.252 | 0.252 | 0.165 | 0.175 | 0.101 | 0.154 | 0.146 | 0.124 | 0.132
HCC-15 | 0.815 | 0.947 | 0.91 | 0.504 | 0.0972 | 0.864 | 0.823 | 0.783 | 0.298 | 0.0811 | 0.244 | 0.22 | 0.225 | 0.192 | 0.113 | 0.371 | 0.35 | 0.463 | 0.456 | 0.287
HCC-44 | 0.618 | 0.61 | 0.515 | 0.19 | 0.113 | 0.756 | 0.837 | 0.787 | 0.386 | 0.0992 | 0.642 | 0.644 | 0.631 | 0.622 | 0.557 | 0.907 | 1.03 | 0.556 | 0.376 | 0.196

— the supplement of paper PMC10307832
